The source of these data is PMC12428505, “A Bifunctional SARS-CoV-2 Entry Inhibitor Targeting the Host Protease TMPRSS2 and Viral Spike Protein HR1 Region” (International Journal of Molecular Sciences, 2025).

*1 amine or outer side, *2 acyl side, *3 side chain or, on linkers, in order; H or OH if unused. Where a SMILES comes first, the peptide text is derived from it. [ ]: non-standard residue; d: D form. The star is where a group is joined. PEG24 = NCCOCCOCCOCCOCCOCCOCCOCCOCCOCCOCCOCCOCCOCCOCCOCCOCCOCCOCCOCCOCCOCCOCCOCCOCCC(=O)O; X1 = N=C(N)Nc1ccc(C(=O)Oc2ccc(CC(=O)OCC(=O)*)cc2)cc1; X2 = CN(Cc1cn(CC(=O)[*:2])nn1)[*:1]; X3 = O=C(Cn1cc(CN[*:1])nn1)[*:2]; PEG4 = NCCOCCOCCOCCOCCC(=O)O

One assay relates to wild-type SARS-CoV-2 PsV.
Test: not given
The conditions noted are these: 48 h.
As a reminder, the IC50 is the midpoint of a concentration-inhibition curve. Low readings indicate higher potency, high ones lower potency. `CC[C@H](C)[C@H](NC(=O)[C@H](CCCNC(=N)N)NC(=O)[C@H](CCSC)NC(=O)[C@H](CC(C)C)NC(=O)[C@H](CCC(=O)O)NC(=O)[C@H](Cc1ccc(O)cc1)NC(=O)[C@@H](NC(=O)[C@H](CCCCN)NC(=O)[C@H](CCC(N)=O)NC(=O)[C@H](CC(C)C)NC(=O)[C@@H](NC(=O)[C@H](Cc1c[nH]c2ccccc12)NC(=O)[C@H](CCC(=O)O)NC(=O)[C@H](CCCCN)NC(=O)[C@H](CC(=O)O)NC(=O)CCOCCOCCOCCOCCNC(=O)Cn1cc(CN(C)C(=O)COC(=O)Cc2ccc(OC(=O)c3ccc(NC(=N)N)cc3)cc2)nn1)[C@@H](C)CC)[C@@H](C)CC)C(=O)N[C@@H](CC(C)C)C(=O)N[C@@H](CC(=O)O)C(=O)N[C@@H](CCC(=O)O)C(=O)N[C@@H](CC(C)C)C(=O)NCC(=O)N[C@@H](Cc1c[nH]cn1)C(=O)N[C@@H](C)C(=O)N[C@@H](CCC(=O)O)C(=O)N[C@@H](C)C(=O)N[C@@H](CO)C(=O)N[C@@H](CCSC)C(=O)N[C@@H](CCCNC(=N)N)C(=O)N[C@H](C(=O)N[C@@H](CCC(=O)O)C(=O)N[C@@H](CC(=O)O)C(=O)N[C@@H](CC(C)C)C(=O)N[C@H](C(=O)N[C@@H](Cc1ccc(O)cc1)C(=O)N[C@@H](CCC(=O)O)C(=O)N[C@@H](Cc1ccccc1)C(=O)N[C@@H](CCSC)C(=O)N[C@@H](CCCCN)C(N)=O)[C@@H](C)CC)C(C)C` [LP4X] (X1-[X2][PEG4]DKEWILQKIYELMRILDELGHAEASMRVEDLIYEFMK-NH2) showed an IC50 of 400 ± 60 nM.

On to `CC[C@H](C)[C@H](NC(=O)[C@H](CCCNC(=N)N)NC(=O)[C@H](CCSC)NC(=O)[C@H](CC(C)C)NC(=O)[C@H](CCC(=O)O)NC(=O)[C@H](Cc1ccc(O)cc1)NC(=O)[C@@H](NC(=O)[C@H](CCCCN)NC(=O)[C@H](CCC(N)=O)NC(=O)[C@H](CC(C)C)NC(=O)[C@@H](NC(=O)[C@H](Cc1c[nH]c2ccccc12)NC(=O)[C@H](CCC(=O)O)NC(=O)[C@H](CCCCN)NC(=O)[C@H](CC(=O)O)NC(=O)CCOCCOCCOCCOCCNC(=O)Cn1cc(CNC(=O)COC(=O)Cc2ccc(OC(=O)c3ccc(NC(=N)N)cc3)cc2)nn1)[C@@H](C)CC)[C@@H](C)CC)C(=O)N[C@@H](CC(C)C)C(=O)N[C@@H](CC(=O)O)C(=O)N[C@@H](CCC(=O)O)C(=O)N[C@@H](CC(C)C)C(=O)NCC(=O)N[C@@H](Cc1c[nH]cn1)C(=O)N[C@@H](C)C(=O)N[C@@H](CCC(=O)O)C(=O)N[C@@H](C)C(=O)N[C@@H](CO)C(=O)N[C@@H](CCSC)C(=O)N[C@@H](CCCNC(=N)N)C(=O)N[C@H](C(=O)N[C@@H](CCC(=O)O)C(=O)N[C@@H](CC(=O)O)C(=O)N[C@@H](CC(C)C)C(=O)N[C@H](C(=O)N[C@@H](Cc1ccc(O)cc1)C(=O)N[C@@H](CCC(=O)O)C(=O)N[C@@H](Cc1ccccc1)C(=O)N[C@@H](CCSC)C(=O)N[C@@H](CCCCN)C(N)=O)[C@@H](C)CC)C(C)C` [LP4Z] (X1-[X3][PEG4]DKEWILQKIYELMRILDELGHAEASMRVEDLIYEFMK-NH2), for which the IC50 was 450 ± 200 nM.

Compound `CC[C@H](C)[C@H](NC(=O)[C@H](CCCNC(=N)N)NC(=O)[C@H](CCSC)NC(=O)[C@H](CC(C)C)NC(=O)[C@H](CCC(=O)O)NC(=O)[C@H](Cc1ccc(O)cc1)NC(=O)[C@@H](NC(=O)[C@H](CCCCN)NC(=O)[C@H](CCC(N)=O)NC(=O)[C@H](CC(C)C)NC(=O)[C@@H](NC(=O)[C@H](Cc1c[nH]c2ccccc12)NC(=O)[C@H](CCC(=O)O)NC(=O)[C@H](CCCCN)NC(=O)[C@H](CC(=O)O)NC(=O)CCOCCOCCOCCOCCOCCOCCOCCOCCOCCOCCOCCOCCOCCOCCOCCOCCOCCOCCOCCOCCOCCOCCOCCOCCNC(=O)Cn1cc(CN(C)C(=O)COC(=O)Cc2ccc(OC(=O)c3ccc(NC(=N)N)cc3)cc2)nn1)[C@@H](C)CC)[C@@H](C)CC)C(=O)N[C@@H](CC(C)C)C(=O)N[C@@H](CC(=O)O)C(=O)N[C@@H](CCC(=O)O)C(=O)N[C@@H](CC(C)C)C(=O)NCC(=O)N[C@@H](Cc1c[nH]cn1)C(=O)N[C@@H](C)C(=O)N[C@@H](CCC(=O)O)C(=O)N[C@@H](C)C(=O)N[C@@H](CO)C(=O)N[C@@H](CCSC)C(=O)N[C@@H](CCCNC(=N)N)C(=O)N[C@H](C(=O)N[C@@H](CCC(=O)O)C(=O)N[C@@H](CC(=O)O)C(=O)N[C@@H](CC(C)C)C(=O)N[C@H](C(=O)N[C@@H](Cc1ccc(O)cc1)C(=O)N[C@@H](CCC(=O)O)C(=O)N[C@@H](Cc1ccccc1)C(=O)N[C@@H](CCSC)C(=O)N[C@@H](CCCCN)C(N)=O)[C@@H](C)CC)C(C)C` [LP24X] (X1-[X2][PEG24]DKEWILQKIYELMRILDELGHAEASMRVEDLIYEFMK-NH2) had an IC50 of 320 ± 30 nM.

In the case of `CC[C@H](C)[C@H](NC(=O)[C@H](CCCNC(=N)N)NC(=O)[C@H](CCSC)NC(=O)[C@H](CC(C)C)NC(=O)[C@H](CCC(=O)O)NC(=O)[C@H](Cc1ccc(O)cc1)NC(=O)[C@@H](NC(=O)[C@H](CCCCN)NC(=O)[C@H](CCC(N)=O)NC(=O)[C@H](CC(C)C)NC(=O)[C@@H](NC(=O)[C@H](Cc1c[nH]c2ccccc12)NC(=O)[C@H](CCC(=O)O)NC(=O)[C@H](CCCCN)NC(=O)[C@H](CC(=O)O)NC(=O)CCOCCOCCOCCOCCOCCOCCOCCOCCOCCOCCOCCOCCOCCOCCOCCOCCOCCOCCOCCOCCOCCOCCOCCOCCNC(=O)Cn1cc(CNC(=O)COC(=O)Cc2ccc(OC(=O)c3ccc(NC(=N)N)cc3)cc2)nn1)[C@@H](C)CC)[C@@H](C)CC)C(=O)N[C@@H](CC(C)C)C(=O)N[C@@H](CC(=O)O)C(=O)N[C@@H](CCC(=O)O)C(=O)N[C@@H](CC(C)C)C(=O)NCC(=O)N[C@@H](Cc1c[nH]cn1)C(=O)N[C@@H](C)C(=O)N[C@@H](CCC(=O)O)C(=O)N[C@@H](C)C(=O)N[C@@H](CO)C(=O)N[C@@H](CCSC)C(=O)N[C@@H](CCCNC(=N)N)C(=O)N[C@H](C(=O)N[C@@H](CCC(=O)O)C(=O)N[C@@H](CC(=O)O)C(=O)N[C@@H](CC(C)C)C(=O)N[C@H](C(=O)N[C@@H](Cc1ccc(O)cc1)C(=O)N[C@@H](CCC(=O)O)C(=O)N[C@@H](Cc1ccccc1)C(=O)N[C@@H](CCSC)C(=O)N[C@@H](CCCCN)C(N)=O)[C@@H](C)CC)C(C)C` [LP24Z] (X1-[X3][PEG24]DKEWILQKIYELMRILDELGHAEASMRVEDLIYEFMK-NH2), the midpoint of inhibition, the IC50, lay at 330 ± 10 nM.

For “Ac-DKEWILQKIYELMRILDELGHAEASMRVEDLIYEFMK-NH2 [LCB1T, reference compound]”, half-maximal inhibition (IC50) required 440 ± 40 nM.

The subject of the next assay is wild-type SARS-CoV-2 PsV. The assay is described as follows: microbe, parasite or virus in culture. Conditions: Severe acute respiratory syndrome coronavirus 2, Caco-2.
Consider `CN(C)C(=O)COC(=O)Cc1ccc(OC(=O)c2ccc(NC(=N)N)cc2)cc1` [Camostat], for which half-maximal inhibition (IC50) required 4600 ± 2320 nM.
